Data reported in US8173133B2, “Acyl pseudodipeptides which carry a functionalized auxiliary arm” (OM Pharma, priority 1999, dated 2012).
pIC50: −log10 of the molar value.

Legend:
Leishmania LmCPb antigen = experiment: Leishmania LmCPb immunization: IL-4 and γ IFN in lymph node cell supernatant (ELISA); type: in vivo, CBA mice; conditions: lymph node cell cultures challenged with the parasite antigen
Experimental: CBA mice were administered through the tail a single subcutaneous injection (100 μl) of Leishmania parasite LmCPb antigen (3 μg per mouse)±adjuvant. […] Eleven days after injection, inguinal and periaortic lymph node cells (2 groups of 3 mice each) were cultured in triplicate in presence of purified LmCPb antigen or whole extract of the parasite (amastigote). At day 4, a supernatant sample is withdrawn and stored at −20° C. for IL-4 and γ IFN assay. Finally, tritiated thymidine (^3H-TdR) is added to the cultures to measure the proliferation reaction.
Cytokine assay is carried out by a sandwich ELISA assay (OptEIA®) kits for γ IFN and IL-4, BD, PharMingen, Basel, Switzerland) and the proliferation response is determined by measuring thymidine take-up (^3H-TdR). ^3H-TdR take-up given in cpm as the arithmetic mean value±standard deviation ([…] of 3 mice each) and IL-4 concentration given in pg/ml are individually reported for each pool of 3 mice as the arithmetic mean of two measurements (cytokine assay).
An LmCPb stock solution is prepared at a concentration of 150 μg/ml in PBS
Adjuvants: The stock solution of OM-294-MP-AC is prepared at a concentration of 0.9 mg/ml in water for injection, with addition of 0.1% triethanolamine.
Antigen-adjuvant mixture: Adjuvant preparation (4 volumes), which had been adjusted to an adequate final concentration in sterile PBS, is mixed just prior to injection with the antigen stock solution (1 volume).

[1] = system: murine predendritic cells (CD-DM); experiment: maturation of murine predendritic cells into dendritic cells (flow cytometry of surface markers); type: cell-based, C57BI/6 mice; conditions: for CD40 MFI: 48 hour
Experimental: The marrow was aspirated from the femur and tibia bones of (C57BI/6, 6 to 8 week-old) mice. The marrow suspension was screened through a 70 μm cell sieve in order to obtain a single cell suspension. Marrow cells were resuspended into Isocove's modified Dulbecco medium (IMDM) supplemented with 10% of heat inactivated foetal calf serum (iFCS) and antibiotics. Cells were incubated overnight at 37° C., under CO2 and a moisture saturated atmosphere, inside 6-well microtiter plates. Next day (day 0), non adherent cells were collected and washed. Viable cells were counted by trypan blue dye exclusion test. Cell concentration was adjusted to 2×10^5 cells/ml in IMDM containing […] and 20 ng/ml of murine recombinant IL-4 (rmIL-4) and plates were further incubated. On the 3rd day, there were added freshly prepared mGM-CSF and rmIL-4 at a concentration of 10 ng/ml. On the 6th day, non adherent cells were collected, washed and counted by trypan blue dye exclusion. Cell concentration was adjusted to 2×10^5 cells/ml in IMDM containing 10 ng/ml of rmGM-CSF and rmIL-4, and plates were further incubated. On the 8th day, non adherent cells made up of both mature and immature dendritic cells (CD-DM) were collected and used in product co-incubation experiments.
After a 48 hour incubation period, cells were collected and stored for flow cytometry analysis Flow cytometry analysis CD-DM were washed with PBS containing 2% iFCS and 0.01% sodium azide (FACS buffer). Then, cells were incubated on ice for 30 minutes with optimal concentrations of anti-CD86 antibody; anti-CD40 antibody, FITC conjugated anti-MCHII antibody, and […]. Then, cells were washed 3 times. Labeling of anti-CD86 and anti-CD40 antibodies was performed by incubating cells on ice for 30 minutes with peroxidase-conjugated donkey anti-rat immunoglobulins. Following incubation, cells were washed and resuspended into FACS medium. Fluorescence was measured with the aid of FACScan® flow cytometry. 15000 pulse events were analyzed per sample. Cells which had been incubated with the conjugate alone were used as a negative control.

HIV-2 ROD = experiment: anti-HIV activity in MT-4 cells (MTT), HIV-2 ROD; type: cell-based
Experimental: T MT-4 lymphocyte cell line which had been transformed into a continuous cell line by an HTLV infection, a virus associated with one form of leukemia, was used to test the antiviral activity (anti-HIV) of AZT- and d4T-conjugated compounds according to the invention, respectively. A characteristic feature of such cells is lack of survival following an HIV infection. The test is based on protection provided by the product (like AZT) against this viral destructive effect. Products were tested in serially diluted solutions in a 96-well plate. In the upper portion of the microplate, products were tested by incubation at various concentrations with cells and virus (in triplicate), so as to determine the concentration of product which affords cell protection against the viral destructive effect. IC50 of the product is taken as the concentration where a 50% loss of viable cell count is recorded. Viable cell count was done with MTT, a yellow tetrazolium compound which undergoes enzymatic reduction (at the mitochondrial level in viable cells) into a purple colored formazan compound. Wells containing viable cells are purple in colour, whereas dead cells give a persistent yellow color. Measurement of optical density (O.D.) allows this effect to be quantified.

| Compound | C80 % cells ([1]; 0.1 μg/ml) [%] | C80 MFI ([1]; 0.1 μg/ml) | CD40 % cells ([1]; 0.1 μg/ml) [%] | CD86 % cells ([1]; 0.1 μg/ml) [%] | CD86 MFI ([1]; 0.1 μg/ml) | MHCII % cells ([1]; 0.1 μg/ml) [%] | MHCII MFI ([1]; 0.1 μg/ml) | CD40 MFI ([1]; 0.1 μg/ml) | C80 % cells ([1]; 1 μg/ml) [%] | C80 MFI ([1]; 1 μg/ml) | CD40 % cells ([1]; 1 μg/ml) [%] | CD86 % cells ([1]; 1 μg/ml) [%] | CD86 MFI ([1]; 1 μg/ml) | MHCII % cells ([1]; 1 μg/ml) [%] | MHCII MFI ([1]; 1 μg/ml) | CD40 MFI ([1]; 1 μg/ml) | C80 % cells ([1]; 10 μg/ml) [%] | C80 MFI ([1]; 10 μg/ml) | CD40 % cells ([1]; 10 μg/ml) [%] | CD86 % cells ([1]; 10 μg/ml) [%] | further results |
| --- | --- | --- | --- | --- | --- | --- | --- | --- | --- | --- | --- | --- | --- | --- | --- | --- | --- | --- | --- | --- | --- |
| CCCCCCCCCCCC(=O)O[C@H](CCCCCCCCCCC)CC(=O)N[C@H](CC(=O)O)C(=O)NCCC[C@H](COC(=O)CCCCCN)NC(=O)C[C@H](O)CCCCCCCCCCC [OM-197-MC-AC, N—[(R)-3-dodecanoyloxytetradecanoyl]-D-aspartic acid, α-N-{(4R)-5-(6-aminohexanoyloxy)-4-[(R)-3-hydroxytetradecanoylamino]pentyl}amide] | 41 | 66 | 34 | 37 | 3504 | 38 | 1597 | 446 | 47 | 73 | 48 | 45 | 3791 | 45 | 1607 | 493 | 53 | 97 | 55 | 52 | γ IFN production (Leishmania LmCPb antigen): < 100 pg/mL; CD86 MFI ([1]; 10 μg/ml): 4162; MHCII % cells ([1]; 10 μg/ml): 49%; MHCII MFI ([1]; 10 μg/ml): 1622; CD40 MFI ([1]; 10 μg/ml): 605 |
| CCCCCCCCCCCC(=O)O[C@H](CCCCCCCCCCC)CC(=O)N[C@H](CC(=O)O)C(=O)NCCC[C@H](COC(=O)CCCCCNC(=O)CCC(=O)OC[C@H]1O[C@@H](n2cc(C)c(=O)[nH]c2=O)C[C@@H]1N=[N+]=[N-])NC(=O)C[C@H](O)CCCCCCCCCCC [OM-197-MC-AC-Succ-AZT] |  |  |  |  |  |  |  |  |  |  |  |  |  |  |  |  |  |  |  |  | pIC50 (HIV-2 ROD): 7.21 |
| CCCCCCCCCCCC(=O)O[C@H](CCCCCCCCCCC)CC(=O)N[C@H](CC(=O)O)C(=O)NCCC[C@H](COC(=O)CCCCCNC(=O)CCC(=O)OC[C@@H]1C=C[C@H](n2cc(C)c(=O)[nH]c2=O)O1)NC(=O)C[C@H](O)CCCCCCCCCCC [OM-197-MC-AC-Succ-d4T] |  |  |  |  |  |  |  |  |  |  |  |  |  |  |  |  |  |  |  |  | pIC50 (HIV-2 ROD): 6.29 |
| CCCCCCCCCCCC(=O)O[C@H](CCCCCCCCCCC)CC(=O)N[C@H](CC(=O)O)C(=O)NCCC[C@H](COC(=O)CCCCC(O)CO)NC(=O)C[C@H](O)CCCCCCCCCCC (stereo partly drawn) [OM-197-MC-FV5, N—[(R)-3-dodecanoyloxytetradecanoylamino]-D-aspartic acid, α-N-{(4R)-5-hydroxy-4-[(R)-3-hydroxytetra-decanoylamino]-pentyl}amide 5-O-(6,7-dihydroxyheptanoate)] | 42 | 66 | 33 | 37 | 3437 | 40 | 1689 | 442 | 45 | 84 | 44 | 43 | 3888 | 43 | 1691 | 517 | 48 | 97 | 54 | 51 | CD86 MFI ([1]; 10 μg/ml): 4097; MHCII % cells ([1]; 10 μg/ml): 48%; MHCII MFI ([1]; 10 μg/ml): 1681; CD40 MFI ([1]; 10 μg/ml): 630 |
